Test results published in patent US6506392B2, “Theraputic topical solution for skin and associated methods of use” (priority 2000, dated 2003).

Tested on: skin exhibiting psoriasis
Assay: topical application to skin exhibiting psoriasis (Example 1)
Format: in vivo, human
Conditions: one subject, treatments used before the solution
Excerpt: A further understanding of the present invention will be afforded by a consideration of the following non-limiting examples. In these examples, the “full strength” 100% solution was utilized. These examples are illustrative of the principals of the present invention and are not intended to limit the scope of the invention to the exemplary uses and formulations.
Three subjects, two male and one […], suffering from psoriasis, applied the solution to areas on their bodies and rubbed in the solution with their fingertips several times per day or as needed. Areas of application included knees and elbows.
It is important to note that some of the subjects had suffered from psoriasis for an extended period of time and had tried a variety of treatments. One subject had previously utilized various tars, cortisones, temovate and methotrexate treatments.

| SMILES | outcome of previous psoriasis treatments |
| --- | --- |
| CN(Cc1cnc2nc(N)nc(N)c2n1)c1ccc(C(=O)N[C@@H](CCC(=O)O)C(=O)O)cc1 [methotrexate] | without success |
| CCC(=O)O[C@]1(C(=O)CCl)[C@@H](C)C[C@H]2[C@@H]3CCC4=CC(=O)C=C[C@]4(C)[C@@]3(F)[C@@H](O)C[C@@]21C [temovate] | without success |
